ChEMBL document CHEMBL1151303, “New macrodiolide antibiotics, 11-O-monomethyl- and 11, 11'-O-dimethylelaiophylins, from Streptomyces sp. HKI-0113 and HKI-0114” (J Nat Prod, 1998)
≈ marks a conversion by molar mass, not a printed value.

Tests used:
Candida albicans = test: Antimicrobial activity against Candida albicans by agar plate diffusion assay; format: functional
Enterococcus faecium = test: Antimicrobial activity against Enterococcus faecium 1528 by agar plate diffusion assay; format: functional
Staphylococcus aureus = test: Antimicrobial activity against Staphylococcus aureus 134/94 by agar plate diffusion assay; format: functional
Mycobacterium sp. = test: Antimicrobial activity against Mycobacterium sp. SG 987 by agar plate diffusion assay; format: functional
L929 = test: Cytotoxicity against mouse L929 cells after 72 hrs by methylene blue staining; format: cell-based; conditions: L929, 72 h
Bacillus subtilis = test: Antimicrobial activity against Bacillus subtilis ATCC 6633 by agar plate diffusion assay; format: functional
HeLa = test: Cytotoxicity against human HeLa cells by methylene blue staining; format: functional, cell-based
K562 = test: Cytotoxicity against human K562 cells after 72 hrs; format: functional, cell-based; conditions: K562, 72 h

CC[C@@H]1[C@@H](C)O[C@@](OC)([C@@H](C)[C@H](O)[C@H](C)[C@H]2OC(=O)/C=C/C=C/[C@H](C)[C@@H]([C@@H](C)[C@@H](O)[C@H](C)[C@@]3(OC)C[C@@H](O[C@H]4C[C@H](O)[C@H](O)[C@H](C)O4)[C@H](CC)[C@@H](C)O3)OC(=O)/C=C/C=C/[C@@H]2C)C[C@H]1O[C@H]1C[C@H](O)[C@H](O)[C@H](C)O1
inhibition zone (IZ) (Candida albicans): 0 mm | inhibition zone (IZ) (Enterococcus faecium): 17 mm | inhibition zone (IZ) (Staphylococcus aureus): 13 mm | inhibition zone (IZ) (Mycobacterium sp.): 15 mm | IC50 (L929): 2.4 µg/mL (≈ 2.28 µM) | inhibition zone (IZ) (Bacillus subtilis): 23 mm | IC50 (HeLa): 2.2 µg/mL (≈ 2.09 µM) | IC50 (K562): 1.3 µg/mL (≈ 1.23 µM)
